Assay results from patent US7776847B2, “Benzisothiazoles useful for treating or preventing HCV infection” (priority 2005, dated 2010).

These compounds were tested on HCV replicon (assay: HCV replicon luciferase reporter assay). Conditions: Hepatitis C virus, Table 5; read-out: IC50.
Assay type: cell-based
Outline: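 Replicon-bearing dividing cells seeded at 5,000–7,500 cells/well, grown 24 h at 37° C/5% CO2, then exposed to test compound at various concentrations for a further 24–48 h. Replication/translation read by luciferase reporter; IC50 taken as compound amount giving 50% reduction in luciferase activity.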
`Nc1ccc2sc(C(=O)NCCCNc3nsc4ccccc34)cc2c1` [Compound 459, 5-amino-N-(3-(benzo[d]isothiazol-3-ylamino)propyl)benzo[b]thiophene-2-carboxamide] was tested, and the IC50 was under 5 µM.
For `COc1ccc(-c2ccc(CN(C)CCCNc3nsc4ccccc34)cc2)cc1` [Compound 490, N^1-(benzo[d]isothiazol-3-yl)-N^3-((4′-methoxybiphenyl-4-yl)methyl)-N^3-methylpropane-1,3-diamine], the IC50 was under 5 µM.
Compound `COc1ccc(-c2ccc(C(=O)NCCCNc3nsc4cccc(C(F)(F)F)c34)cc2)cc1` [Compound 500, 4′-methoxy-N-(3-(4-(trifluoromethyl)benzo[d]isothiazol-3-ylamino)propyl)biphenyl-4-carboxamide] has an IC50 of over 5 µM.
In the case of `COc1ccc(CNS(=O)(=O)c2ccc3snc(NCCCNC(=O)c4ccc(-c5ccc(OC)cc5)cc4)c3c2)cc1` [Compound 515, 4′-methoxy-N-(3-(5-(N-(4-methoxybenzyl)sulfamoyl)benzo[d]isothiazol-3-ylamino)propyl)biphenyl-4-carboxamide], the IC50 is reported as over 5 µM.
`O=C(NCCCNc1nsc2ncccc12)C1CCN(c2nccc(C(F)(F)F)n2)CC1` [Compound 533, N-(3-(isothiazolo[5,4-b]pyridin-3-ylamino)propyl)-1-(4-(trifluoromethyl)pyrimidin-2-yl)piperidine-4-carboxamide] was tested, and the IC50 was under 5 µM.
`CC(C)(C)OC(=O)N[C@H](C(=O)NCCNc1nsc2ccccc12)c1ccccc1` [Entry 11, (S)-tert-Butyl 2-(2-(Benzo[d]isothiazol-3-ylamino)ethylamino)-2-oxo-1-phenylethylcarbamate] was tested, and the IC50 was under 5 µM.
Work on `O=C(c1ccccc1)c1cccnc1C(=O)NCCNc1nsc2ccccc12` [Entry 12, N-(2-(Benzo[d]isothiazol-3-ylamino)ethyl)-3-benzoylpicolinamide] yielded an IC50 of under 5 µM.
`Cc1cccc(C(=O)NCCNc2nsc3ccccc23)n1` [Entry 13, N-(2-(Benzo[d]isothiazol-3-ylamino)ethyl)-6-methylpicolinamide] showed an IC50 of over 5 µM.
With `COc1ccc(C(=O)NCCNc2nsc3ccccc23)cc1` [Entry 14, N-(2-(Benzo[d]isothiazol-3-ylamino)ethyl)-4-methoxybenzamide] the IC50 was under 5 µM.
`CC(C)[C@H](NC(=O)OC(C)(C)C)C(=O)NCCNc1nsc2ccccc12` [Entry 18, (S)-tert-Butyl 1-(2-(Benzo[d]isothiazol-3-ylamino)ethylamino)-3-methyl-1-oxobutan-2-ylcarbamate] showed an IC50 of under 5 µM.
`O=C(NCCNc1nsc2ccccc12)c1ccccn1` [Entry 25, N-(2-(Benzo[d]isothiazol-3-ylamino)ethyl)picolinamide] gave an IC50 of under 5 µM.
Compound `O=C(NCCNc1nsc2ccccc12)c1cccc(Br)n1` [Entry 27, N-(2-(Benzo[d]isothiazol-3-ylamino)ethyl)-6-bromopicolinamide] has an IC50 of over 5 µM.
With `O=C(NCCNc1nsc2ccccc12)c1cccc(Cl)c1` [Entry 33, N-(2-(Benzo[d]isothiazol-3-ylamino)ethyl)-3-chlorobenzamide] the IC50 was over 5 µM.
In the case of `O=C(NCCNc1nsc2ccccc12)c1c(Cl)cccc1Cl` [Entry 41, N-(2-(Benzo[d]isothiazol-3-ylamino)ethyl)-2,6-dichlorobenzamide], the IC50 is reported as over 5 µM.
`O=C(CC1CC1)NCCNc1nsc2ccccc12` [Entry 71, N-(2-(Benzo[d]isothiazol-3-ylamino)ethyl)-2-cyclopropylacetamide] showed an IC50 of over 5 µM.
`O=C(NCCNc1nsc2ccccc12)C1CCCNC1` (stereo not shown) [Entry 73, N-(2-(Benzo[d]isothiazol-3-ylamino)ethyl)piperidine-3-carboxamide] was tested, and the IC50 was over 5 µM.
`N[C@H](C(=O)NCCNc1nsc2ccccc12)c1ccccc1` [Entry 74, (S)-2-Amino-N-(2-(benzo[d]isothiazol-3-ylamino)ethyl)-2-phenylacetamide] showed an IC50 of over 5 µM.
Work on `CC(C)[C@H](N)C(=O)NCCNc1nsc2ccccc12` [Entry 75, (S)-2-Amino-N-(2-(benzo[d]isothiazol-3-ylamino)ethyl)-3-methylbutanamide] yielded an IC50 of over 5 µM.
In the case of `Cc1cccnc1C(=O)NCCNc1nsc2ccccc12` [Entry 76, N-(2-(Benzo[d]isothiazol-3-ylamino)ethyl)-3-methylpicolinamide], the IC50 is reported as under 5 µM.
With `COC(=O)c1ccc(C(=O)NCCNc2nsc3ccccc23)nc1` [Entry 77, Methyl 6-(2-(Benzo[d]isothiazol-3-ylamino)ethylcarbamoyl)nicotinate] the IC50 was over 5 µM.
`O=C(O)c1ccc(C(=O)NCCNc2nsc3ccccc23)nc1` [Entry 78, 6-(2-(Benzo[d]isothiazol-3-ylamino)ethylcarbamoyl)nicotinic Acid] showed an IC50 of over 5 µM.
In the case of `O=C(NCCNc1nsc2ccccc12)c1ccc2ccccc2n1` [Entry 79, N-(2-(Benzo[d]isothiazol-3-ylamino)ethyl)quinoline-2-carboxamide], the IC50 is reported as over 5 µM.
`COC(=O)c1cccc(C(=O)NCCNc2nsc3ccccc23)n1` [Entry 80, Methyl 6-(2-(Benzo[d]isothiazol-3-ylamino)ethylcarbamoyl)picolinate] was tested, and the IC50 was over 5 µM.
Work on `O=C(O)c1cccc(C(=O)NCCNc2nsc3ccccc23)n1` [Entry 81, 6-(2-(Benzo[d]isothiazol-3-ylamino)ethylcarbamoyl)picolinic Acid] yielded an IC50 of over 5 µM.
With `O=C(Cc1c[nH]c2ccccc12)NCCNc1nsc2ccccc12` [Entry 82, N-(2-(Benzo[d]isothiazol-3-ylamino)ethyl)-2-(1H-indol-3-yl)acetamide] the IC50 was over 5 µM.
Compound `COc1cccc(S(=O)(=O)NCCCNc2nsc3ccccc23)c1` [Entry 220, N-(3-(benzo[d]isothiazol-3-ylamino)propyl)-3-methoxybenzenesulfonamide] has an IC50 of under 5 µM.
Compound `O=S(=O)(NCCCNc1nsc2ccccc12)c1cc(F)c(Br)cc1F` [Entry 221, N-(3-(benzo[d]isothiazol-3-ylamino)propyl)-4-bromo-2,5-difluorobenzenesulfonamide] has an IC50 of under 5 µM.
With `O=S(=O)(NCCCNc1nsc2ccccc12)c1ccc(Br)s1` [Entry 222, N-(3-(benzo[d]isothiazol-3-ylamino)propyl)-5-bromothiophene-2-sulfonamide] the IC50 was under 5 µM.
`O=S(=O)(NCCCNc1nsc2ccccc12)c1ccc(Oc2ccc(Cl)cc2)cc1` [Entry 223, N-(3-(benzo[d]isothiazol-3-ylamino)propyl)-4-(4-chlorophenoxy)benzenesulfonamide] was tested, and the IC50 was under 5 µM.
Work on `N#Cc1ccc(NCCCNc2nsc3ccccc23)nc1` [Entry 224, 6-(3-(benzo[d]isothiazol-3-ylamino)propylamino)pyridine-3-carbonitrile] yielded an IC50 of under 5 µM.
In the case of `COC(=O)c1cnc(NCCCNc2nsc3ccccc23)nc1C(F)(F)F` [Entry 225, methyl 2-(3-(benzo[d]isothiazol-3-ylamino)propylamino)-4-(trifluoromethyl)pyrimidine-5-carboxylate], the IC50 is reported as under 5 µM.
For `Clc1ccc(NCCCNc2nsc3ccccc23)nc1` [Entry 226, N-(3-(5-chloropyridin-2-ylamino)propyl)benzo[d]isothiazol-3-amine], the IC50 was under 5 µM.
With `Cc1ccnc(NCCCNc2nsc3ccccc23)c1` [Entry 227, N-(3-(4-methylpyridin-2-ylamino)propyl)benzo[d]isothiazol-3-amine] the IC50 was under 5 µM.
`FC(F)(F)c1ccc(NCCCNc2nsc3ccccc23)nc1` [Entry 228, N-(3-(5-(trifluoromethyl)pyridin-2-ylamino)propyl)benzo[d]isothiazol-3-amine] gave an IC50 of under 5 µM.
In the case of `N#Cc1ccnc(NCCCNc2nsc3ccccc23)c1` [Entry 229, 2-(3-(benzo[d]isothiazol-3-ylamino)propylamino)pyridine-4-carbonitrile], the IC50 is reported as under 5 µM.
With `Clc1cccc(NCCCNc2nsc3ccccc23)n1` [Entry 230, N^1-(benzo[d]isothiazol-3-yl)-N^3-(6-chloropyridin-2-yl)propane-1,3-diamine] the IC50 was under 5 µM.
Work on `FC(F)(F)c1ccnc(NCCCNc2nsc3ccccc23)c1` [Entry 231, N^1-(benzo[d]isothiazol-3-yl)-N^3-(4-(trifluoromethyl)pyridin-2-yl)propane-1,3-diamine] yielded an IC50 of under 5 µM.
With `O=C(NCCCNc1nsc2ccccc12)c1cccc(OCC(O)CN2CCOCC2)c1` (stereo not shown) [Entry 232, N-(3-(benzo[d]isothiazol-3-ylamino)propyl)-3-(2-hydroxy-3-morpholinopropoxy)benzamide] the IC50 was under 5 µM.
Work on `COc1cccc(N2CCN(CC(O)COc3cccc(C(=O)NCCCNc4nsc5ccccc45)c3)CC2)c1` (stereo not shown) [Entry 233, N-(3-(benzo[d]isothiazol-3-ylamino)propyl)-3-(2-hydroxy-3-(4-(3-methoxyphenyl)piperazin-1-yl)propoxy)benzamide] yielded an IC50 of under 5 µM.
Compound `O=C(NCCCNc1nsc2ccccc12)c1ccc(F)cc1` [Entry 234, N-(3-(benzo[d]isothiazol-3-ylamino)propyl)-4-fluorobenzamide] has an IC50 of under 5 µM.
`O=C(NCCCNc1nsc2ccccc12)c1ccc(OCc2ccncc2)cc1` [Entry 235, N-(3-(benzo[d]isothiazol-3-ylamino)propyl)-4-(pyridin-4-ylmethoxy)benzamide] was tested, and the IC50 was under 5 µM.
`COc1cccc(COc2ccc(C(=O)NCCCNc3nsc4ccccc34)cc2)c1` [Entry 236, N-(3-(benzo[d]isothiazol-3-ylamino)propyl)-4-(3-methoxybenzyloxy)benzamide] showed an IC50 of under 5 µM.
In the case of `COc1ccc(COc2ccc(C(=O)NCCCNc3nsc4ccccc34)cc2)cc1OC` [Entry 237, N-(3-(benzo[d]isothiazol-3-ylamino)propyl)-4-(3,4-dimethoxybenzyloxy)benzamide], the IC50 is reported as under 5 µM.

Same assay, conditions: Table 5; read-out: IC50
`CC(C)(C)NS(=O)(=O)c1cccc2snc(NCCCN)c12` [Compound 506, 3-(3-aminopropylamino)-N-tert-butylbenzo[d]isothiazole-4-sulfonamide] gave an IC50 of over 5 µM.
Compound `CC(C)(C)NS(=O)(=O)c1cccc2c(NCCCN)nsc12` [Compound 507, 3-(3-aminopropylamino)-N-tert-butylbenzo[d]isothiazole-7-sulfonamide] has an IC50 of over 5 µM.
`CC(C)(C)NS(=O)(=O)c1ccc2c(NCCCN)nsc2c1` [Compound 508, 3-(3-aminopropylamino)-N-tert-butylbenzo[d]isothiazole-6-sulfonamide] gave an IC50 of over 5 µM.
